Measured values from PMC6698794, “Catalytic Knockdown of miR-21 by Artificial Ribonuclease: Biological Performance in Tumor Model” (Frontiers in Pharmacology, 2019).

Assays:
[1] = Nuclease resistance assay in DMEM with 10% fetal bovine serum; assay type: in vitro ADME; settings: 0.1 µg/µl, DMEM with 10% FBS, 37°C; 12% PAAG/8M urea gel, Stains-All
Procedure: Oligonucleotides or conjugates (0.1 µg/µl) were incubated at 37°C in Dulbecco’s Modified Eagle Medium (DMEM) (Sigma, USA) with 10% fetal bovine serum (FBS; GE Healthcare, USA). Reactions were quenched in urea (8M) and immediately frozen in liquid nitrogen, prior to analysis of thawed samples in 12% PAAG/8M urea gels, using Tris-Borate-EDTA (TBE) as running buffer, Stains-All (MP Biomedicals, USA) and photographic gel documentation (VilberLourmat, France).

B16 melanoma cells = experiment: Annexin V-FITC/PI apoptosis assay; assay type: cell-based, mouse; settings: 1 µM with Lipofectamine; 24, 48, 72 h after transfection; maximum extent; flow cytometry
Procedure: (§1) B16 cells were pre-seeded (2 × 10^5 per well of 24-well plates) in DMEM/10% FBS a day before transfection. Medium was replaced with serum-free DMEM, prior to incubation for 4 h with h-ODN, 2′-OMe, Inh (hsa-miR-21 5 p inhibitor, Ambion, USA), miR-21-miRNase, or luc-POC, each (0.1 or 1 µM) pre-complexed with Lipofectamine (Thermo Fisher Scientific, USA) in Opti-MEM medium (Thermo Fisher Scientific, USA) according to manufacturer’s instructions, then cells were cultivated in fresh culture standard medium for 24–72 h.
At 24, 48, and 72 h after transfection, cells were harvested, washed twice with PBS, resuspended in Binding Buffer to a density of 2–5 × 10^5/ml, and incubated with annexin V-FITC and propidium iodide (PI) (ab14085, Abcam, UK) in the dark at room temperature for 15 min, prior to flow cytometry analysis (Novocyte CEA Biosciences, USA).
(§2) Figure 2 Biological effect of the miR-21-specific miRNase. (A) Apoptotic profile of B16 melanoma cells after transfection with miR-21-miRNase and control luc-POC. Cytofluorimetric analysis of cells after staining with Annexin V-FITC/PI 48 h after transfection with miRNase or luc-POC (1 µM) in complex with Lipofectamine2000. Q1—population of living cells; Q2—Annexin V-FITC+/PI-, early apoptosis; Q3—Annexin V-FITC+/PI+, late apoptosis; Q4—Annexin V-FITC-/PI+, necrosis. (B) Average percentage of apoptotic (early and late apoptosis) and necrotic B16 cell population. Data represent mean ± s.e. of four independent experiments.(C, D) Invasion activity of B16 cells after incubation with Lipofectamine (LF) alone or treated with either hairpin antisense oligonucleotide (h-ODN), hairpin 2′-OMe oligonucleotide (2′-OMe), commercial miR-21 inhibitor (Inh), miR-21-miRNase, and control conjugate (luc-POC) in the concentration of 1 µM. Migration of cells was recorded in real time using the xCELLigence cell analysis system. Control—B16 cells without treatment. Data represent mean ± s.d. of four independent experiments.

RLS40 lymphosarcoma [2] = experiment: Hepatic index of mice implanted with treated RLS40 cells; assay type: in vivo; settings: cells treated with 1 µM; (liver weight/mouse weight) × 100%; 5.0% for healthy CBA mice; Mean ± SE
Procedure: (§3) RLS40 ascites were taken from CBA mice intraperitoneally injected with tumor cells (2 × 10^6 in 0.2 ml buffered saline) into their abdominal cavities. RLS40 cells, isolated from ascites fluid by filtration through LSM were divided into seven portions: 1) untreated cells; 2) the cells incubated with Lipofectamine; the cells transfected with 1 µM of 3) h-ODN, 4) 2′-OMe, 5) Inh, 6) miR-21-miRNase, or 7) luc-POC each. After 4 h of transfection, cell suspensions (0.1 ml, 2 × 10^6 cells) were intramuscularly inoculated into the right lower limb of CBA mice for solid tumor development. As soon as tumors began to be palpable, the tumor volumes were measured every 2–3 days using calipers. Tumor volumes were calculated as V = (π/6 × length × width × height). Hepatic index was estimated as (liver weight/mouse weight) × 100% and as 5.0% for healthy CBA mice. Tumor doubling time (DT) was estimated as DT = (t − t0) × ln 2/(ln V − ln V0), where (t − t0) indicates the length of time between two measurements of tumor size and V0 and V denote the tumor volume at two points of the measurement ([Ozono et al., 2004]).
Supplementary Table 2. Hepatic indexes of mice implanted with RLS40 treated with antisense
oligonucleotides, control luc-POC and miR-21-miRNase
Type of treatment Hepatic index, %* p-value (vs control)
* – Mean ± SE; s.i. – statistically insignificant
Hepatic index was estimated as (liver weight/mouse weight) × 100% and as 5.0% for healthy CBA
The MDR status of RLS40 may add to the burden on the liver, when this type of tumor
metastasizes into the liver (Sen’kova et al., 2012). Ex vivo treatment of RLS40 cells by
oligonucleotides and miRNase avoids the toxic effect of antisense oligonucleotides, their conjugates
and transfection reagents directly on the tumor-bearing animal. This may allow consideration of
whether the decrease of migration activity of tumor cells translated into reduced metastatic burden of
RLS40 on the liver. Treatment of the cells seeding the tumor may not reduce migration and […]

RLS40 lymphosarcoma [3] = experiment: Tumor transplantation assay: RLS40 cells treated ex vivo, then inoculated intramuscularly; assay type: in vivo, CBA mice; settings: cells treated with 1 µM before transplantation
Procedure: as §3
Figure 3 Antitumor effect of miR-21-specific miRNase. (A) Retardation of RLS40 growth in vivo after treatment of RLS40 cells with antisense oligonucleotides, control conjugate (luc-POC), or miR-21-miRNase. (B) Tumor volume on day 19 after RLS40 transplantation. Mice were injected with RLS40 cells either without any treatment (w/t) or treated with Lipofectamine (LF), commercial miR-21 inhibitor at concentration 0.1 µM (Inh 0.1, recommended) and 1 µM (Inh 1, in accordance to concentration of miRNase used in the study), control conjugate (luc-POC, 1 µM), hairpin 2′OMe oligonucleotide (2′-OMe, 1 µM), hairpin antisense oligonucleotide (h-ODN, 1 µM) or miR-21-specific miRNase (miR-21-miRNase, 1 µM). Data were statistically analyzed using two-way ANOVA with post hoc Tukey test. Data are presented as mean ± s.e. p-value indicates a statistically reliable difference. (C) Doubling time of RLS40 tumors after treatment with oligonucleotides and conjugates. TEXT PRINTED IN THE PICTURE: (C) untreated: DT, days: 2,45±0,49 | (C) LF: DT, days: 2,48±0,35 | (C) Inh 0.1: DT, days: 2,56±0,59 | (C) Inh 1: DT, days: 13,90±0,46 | (C) 2’-OMe: DT, days: 3,17±1,45 | (C) luc-POC: DT, days: 2,40±0,45 | (C) h-ODN: DT, days: 3,00±1,83 | (C) miR-21-miRNase: DT, days: 12,77±0,34

B16 cells = experiment: In vitro invasiveness assay (xCELLigence, Matrigel-coated CIM-Plates); assay type: cell-based, mouse; settings: 1 µM with Lipofectamine; compared with Lipofectamine alone
Procedure: as §1
Real-time cell analysis (xCELLigence, ACEABiosciences, USA) used CIM-Plates held at 37°C under an atmosphere of 5% CO2. Top chamber wells were coated with Matrigel (20 µl per well, diluted 1:40 with cold serum-free DMEM) and allowed to polymerize (4 h at 37°C under 5% CO2) prior to cell seeding. Bottom chamber wells were filled with DMEM/10% FBS (160 µl each), prior to assembly of the chambers, when serum-free DMEM was added to the top wells (30 µl each) and equilibrated (1 h at 37°C under 5% CO2). At 4 h after transfection, B16 cells (4 × 10^4) were seeded into each top chamber well in serum-free DMEM and pre-incubated for 30 min at room temperature before monitoring (xCELLigence set to collect impedance data, reported as cell index at least once every 30 min).
as §2

Substance | Survival (intact) in serum-containing medium [1] | Necrosis of melanoma B16 cells (Annexin V-FITC-/PI+) (B16 melanoma cells) | Hepatic index (RLS40 lymphosarcoma [2]) | Tumor doubling time against w/t (in words) (RLS40 lymphosarcoma [3]) | Tumor growth (in words) (RLS40 lymphosarcoma [3]) | Migration rate of transfected B16 cells (in words) (B16 cells)
ODN: linear 14-mer deoxyribooligonucleotide TCAGTCTGATAAGC (unmodified DNA) | rapidly degraded |  |  |  |  | 
acetyl-[(LeuArg)2Gly]2-aminohexyl-CGATAAATAACGCGСAAGTCAGCGAAAGCTGACTTG [luc-POC, control peptide-oligonucleotide conjugate; same hairpin, complementary part replaced by luciferase gene fragment] |  | up to 6.5% | 5.56±0.11% | did not show a statistically significant difference | did not differ | almost the same rate as cells incubated with Lipofectamine
